Laboratory results from patent publication US20110319360A1, “Method of including apoptosis/Cell death in leukemia cell using a purine nucleoside analogue” (U.S. Department of Veterans Affairs, priority 2010, published 2011).
Read-outs that look alike come from different tables or passages of the source.

Columns and labels:
normal PBMCs = assay: [3H]-thymidine proliferation assay, mitogen-stimulated normal PBMCs; format: cell-based, human; details: for IC50: Homo sapiens, PBMC, 96 h, read-out: IC50 for suppression of mitogen-induced proliferation
Protocol: CLL cells (2×10^5 cells/well) were cultured in quadruplicate in a volume of 200 μl in 96-well tissue culture plates for 96 hours with 1 μM CpG-oligodeoxynucleotides (ODN) DSP30 (Reference 14) (Midland Certified Reagent Company, Midland, Tex.) and 100 units/ml IL-2 (R&D Systems) in the presence or absence of drug. As controls, cells were treated with media without DSP30/IL-2. Cells were incubated with 1 μCi/well [methyl-^3H]-thymidine (specific activity 6.7 Ci/mmol, PerkinElmer, Waltham, Mass., USA) for 14-18 hours prior to harvesting onto glass-fiber filters using a semi-automated cell harvester. [^3H]-thymidine incorporation was measured as counts per minute (cpm) using a Tri-Carb 2100 timed-resolved liquid scintillation counter (PerkinElmer). The same protocol was utilized for proliferation assays with normal PBMCs, with the exception that growth was stimulated by treatment with 10 μg/ml Phytohemagglutinin-P (PHA, Sigma), 5 μg/ml concanavalin A (ConA, Sigma), 2 μg/ml pokeweed mitogen (PWM, Sigma), 25 ng/ml muromonab-CD3 (α-CD3, Ortho Pharmaceuticals, Raritan, N.J.), or 50 ng/ml phorbol myristate acetate (PMA, Sigma) plus 1 μg/ml ionomycin (iono, Sigma) for 96 hours. Proliferation is reported as percent of control (drug-treated cpm/control-treated cpm×100%).

[1] = test system: CD34+ hematopoietic progenitor cells (myeloid colonies); assay: Colony formation assay, myeloid colonies; format: cell-based, human
Protocol: CD34^+ hematopoietic progenitor cells were isolated from PBMCs from two healthy donors using the CD34 Microbead Kit (Miltenyi Biotec, Auburn, Calif.). 10^3 CD34^+-enriched cells were cultured in a 35 mm culture plate (1000 cells/plate) with or without LMP-420 or fludarabine in 1.1 ml Human Methylcellulose Complete Media (R&D Systems) according to the manufacturer's protocol. Plates were incubated for 14 days at 37° C. in humidified 5% CO2. Each treatment group was tested in triplicate. Colonies on plates were scored by two independent observers, blinded to the treatment groups, by microscopic evaluation under 10× and 20× power. Colonies were categorized as being of either erythroid or myeloid lineage.

[2] = Reference 44; cited from earlier work

Nc1nc(Cl)c2ncn(CCCCCB(O)O)c2n1 [LMP-420, 2-amino-6-chloro-9-[5(dihydroxyboryl)-pentyl] purine]
PBMC proliferation IC50 relative to ED50 in CLL cells (normal PBMCs): 100- to 250 fold | IC50 (normal PBMCs; Con A, 96 hours): 71 µM | IC50 (normal PBMCs; PHA, 96 hours): > 90 µM | IC50 (normal PBMCs; PMA/Iono, 96 hours): > 90 µM | IC50 (normal PBMCs; PWM, 96 hours): > 90 µM | IC50 (normal PBMCs; α-CD3, 96 hours): 33 µM | myeloid colony IC50 relative to CLL ED50 [1]: greater than 40 fold | IC50 ([1]; Homo sapiens, 336 h, 14 days, healthy donors (n=2), read-out: mean IC50 for normal myeloid colony formation): 25 µM | oral bioavailability [2]: orally bioavailable | tolerability in vivo [2]: well-tolerated in vivo
